The values below come from a melting point compilation (Tetko et al.; mined from patent text by program, amines drawn as free bases though some values may be those of a salt).

For orientation: melting point means the temperature, or range, at which the solid turns liquid.

Where only a bound is given, the exact number is not on record here.

`COc1cc(OC)c(OC)cc1CN[C@@H](C(=O)O)[C@H](O)[C@H](Cc1ccccc1)NC(=O)OC(C)(C)C` displayed a melting point of 206 °C. As for `CCn1cc(Br)nc(N)c1=O`, the figure is 227 to 230 °C; as for `CCOC(=O)COc1ccc(C=O)cc1NC(=O)c1ccc(OCCCCc2ccccc2)cc1`, 109 to 110 °C. `CCOC(=O)C1(O)CC(c2ccncc2)=NNC1=O` (stereo unspecified) had a melting point of 160 to 163 °C. In the case of `CNC(=O)CN1CCc2cc(Nc3ncc(Cl)c(N[C@H]4[C@@H](C(N)=O)[C@@H]5C=C[C@H]4C5)n3)c(OC)cc2CC1`, the melting point was in the range of 135 to 145 °C.

In turn, `CC(C)(C#N)NC(=O)c1ccccc1Cl` displayed a melting point of 59 to 65 °C. The result for `CCOC(=O)N[C@@H]1CCc2c(ccc(OCc3ccccc3)c2C(=O)OC)[C@H]1O` (relative stereo) reads 147 to 148 °C; that for `CCCCc1nc2c(N)nc3ccccc3c2n1CCOCCON=C(C)C`, 116 to 118 °C.

On to `COc1ccc(OCC2(CO)CC2)cc1`, for which the melting point is 80 to 81 °C. The result for `O=C(O)c1cccc(-n2nnnc2S)c1` reads 181 to 182 °C. The result for `CCCC(=O)NNC(=O)c1ccncc1` reads 142 °C; that for `[N-]=[N+]=NCC1=C(C(=O)O)N2C(=O)C(NC(=O)Cc3csc(=O)s3)C2SC1` (stereo unspecified), 160 °C; that for `CCN1C(=O)SC(Cc2ccc(N)cc2)C1=O` (stereo unspecified), 103 to 104 °C. As for `CC(=NOCc1ccccc1)C(C)Oc1ccccc1NC(=O)c1cccnc1Cl` (stereo unspecified), the figure is 53 to 55 °C. For the compound `Cc1cccc(C(=O)C=CN(C)C)n1`, the melting point was 97 to 98 °C. As for `CCOC(=O)NN=Cc1nc[nH]c1C`, the figure is 195 to 203 °C; as for `CN(C)NC(=O)NC1c2ccccc2Oc2ccccc21`, 189 to 191 °C; as for `COC(=O)CC(c1ccc(OC)c(OC)c1)N1C(=O)C2C=CCCC2C1=O` (stereo unspecified), 100 to 102 °C. With `CC(=O)NCC1=C(N2CCCC2=O)c2cc([N+](=O)[O-])ccc2OC1(C)C`, the melting point was 205 °C. As for `CCCOc1ccc(/C=C/C(=O)O)cc1-c1nc2c(CCC)nn(C)c2c(=O)[nH]1`, the figure is 229 to 230 °C; as for `CCCc1cc(C(=O)O)ccc1OCc1ccccc1`, 163 °C. The result for `CC(=O)Nc1nnc(C(F)(F)C(Cl)Cl)s1` reads 182 to 184 °C; that for `COc1cc2c3c(n(C)c(=O)c2cc1OC)-c1cc2c(cc1C3=CCCCCBr)OCO2`, 196 to 197 °C. The result for `Cc1onc(-c2ccccc2)c1-c1ccccc1` reads 95.5 to 96.2 °C.

`COc1ccc2c(c1)CC(C)C2=O` (stereo unspecified) showed a melting point of 73 to 76 °C. The result for `NS(=O)(=O)c1cc(C(=O)O)cc(NC/C=C/CBr)c1Oc1ccccc1` reads 191 to 194 °C; that for `CN1CCN(C2=Nc3ccccc3Sc3ccccc32)C[C@@H]1CCc1ccccc1`, 44 to 54 °C. As for `C#CCNC(=O)C(c1ccccc1)c1ccccc1`, the figure is 131 °C; as for `CC(=C1SC(=O)NC1=O)c1cccc(OCCOc2c(-c3ccc(F)c(F)c3)n(C)c3ccccc3c2=O)c1`, 236 to 240 °C. The result for `O=S1(=O)N=CN(C2CCCCCC2)c2cc(Cl)c(Cl)cc21` reads 222 to 224 °C; that for `CC(C)c1onc(-c2c(Cl)cccc2Cl)c1COc1ccc(NCc2ccc(C(=O)O)cc2)c(C(F)(F)F)n1`, 259 to 260 °C; that for `CC1CC2C3CCC4=CC(=O)C=CC4(C)C3=CCC2(C)C1C(=O)CN1CCN(c2cc(NC34CC5CC(CC(C5)C3)C4)nc(NC34CC5CC(CC(C5)C3)C4)n2)CC1` (stereo unspecified), 210 to 220 °C. In the case of `CCn1c(C(c2cccc(F)c2)c2cccc(F)c2)nc(-c2ccncc2)c1-c1ccc(Cl)cc1`, the melting point was 184 to 186 °C.

For the compound `O=C(c1ccccc1)c1ccc(-c2nc(COc3ccc(CCCCn4ccnc4)cc3)co2)cc1`, the melting point lay in the range of 91 to 92 °C. As for `CCOC(=O)c1cn(C(C)C(=O)c2ccccc2)c2nc(-c3ccccc3)c(C)n2c1=O` (stereo unspecified), the figure is 177 to 178 °C; as for `Cc1c(-c2ccccn2)[nH]c2ncnc(Nc3cccc(Cl)c3)c12`, 171 to 172 °C; as for `CC(C)c1cc2cc(OCC(=O)O)c(Cl)c(Cl)c2s1`, 168 to 170 °C.

`O=C(Cl)c1sc2ccc(OCc3ccccc3)cc2c1Cl` registered a melting point of 139 to 142 °C. As for `Cc1cccc(N2Cc3ccccc3P2(=O)c2ccccc2)c1` (stereo unspecified), the figure is 190 to 192 °C. Turning to `CCCCn1ncc(/C=C(\Cc2cc3c(cc2OC)CCO3)C(=O)O)c1-c1ccc(Cl)cc1OCc1c(Cl)cccc1C(=O)O`, the melting point was in the range of 114 to 116 °C. In the case of `N#CC(c1ccccc1)c1ccc([N+](=O)[O-])cc1C(F)(F)F` (stereo unspecified), the melting point worked out at 70.4 °C. The result for `CC(C)(O)Cc1c(Br)cnc2c(NC(=O)c3c(Cl)cccc3Cl)cccc12` reads 260 to 262 °C; that for `CN1C(=O)C(c2c[nH]c3ccc(F)cc23)=C(c2c[nH]c3ccc(F)cc23)C1=O`, greater than 290 °C; that for `CC(C)(C)OC(=O)Cn1c(C(=O)O)cc2cc(NC(=O)OC(C)(C)C)ccc21`, greater than 300 °C. As for `O=C(NC(=O)c1c(F)cccc1F)Nc1ccc2c(c1)C(F)(F)OC(F)(F)O2`, the figure is 231 °C; as for `CCOC(=O)c1ccc2c(c1)N(CCN(C)C)C(=O)c1cc(C(C)C)cc(C(C)C)c1O2`, 97 to 98 °C. As for `COc1cc(Nc2nccc(Nc3cccc(OC(F)(F)F)c3)n2)cc(OC)c1OC`, the figure is 154 to 156 °C; as for `O=c1[nH]nc2ccc(OCCCN3CCC(OC(c4ccccc4)c4ccccc4)CC3)nn12`, 209 to 211 °C. As for `CC[C@@H]1N(c2ccc(C#N)c(Cl)c2)C(=O)C[C@@]1(O)C1CC1`, the melting point fell in the range of 128 to 132 °C. The result for `CCOC(=O)/C=C(C)/C(F)=C/C=C(\C)C=O` reads 70 to 74 °C. `CCOCc1nc2c(N)nc3cc(Br)ccc3c2n1CC1COC(C)(C)O1` (stereo unspecified): the melting point is 176 to 177 °C. As for `NS(=O)(=O)c1ccc(N2CCN(CCC3C=Cc4ccccc43)CC2)cc1` (stereo unspecified), the figure is 181 °C; as for `Clc1ccc(C(Cl)c2cc3cc(Br)ccc3o2)cc1` (stereo unspecified), 83 to 85 °C; as for `O=Cc1ccc(OCc2ccccn2)cc1O`, 89.2 to 89.7 °C.

On to `Cc1cc(=O)c(Oc2ccccc2C)c(-c2ccc(S(C)(=O)=O)cc2)o1`, for which the melting point is 168 °C.

The compound `Cc1c(-c2ccc(Cl)c(F)c2)sc2nc(N)[nH]c(=O)c12` yielded a melting point of 350 to 370 °C. In turn, `O=C(NC(Cc1c[nH]c2ccccc12)C(=O)OCc1cccc(C(F)(F)F)c1)c1ccccc1` (stereo unspecified) returned a melting point of 118 °C.

`CCOC(=O)c1ncn2c1CN(C)C(=O)c1ccccc1-2` displayed a melting point of 163 to 165 °C. For the compound `Cc1nccn1CCC(C(N)=O)(c1ccccc1)c1ccccc1`, the melting point was in the range of 191 to 193 °C. The result for `CN1C(=O)C(C(=O)Nc2cccc(F)c2)S(=O)(=O)c2ccccc21` (stereo unspecified) reads 206 to 208 °C; that for `Cc1nc2c([nH]1)N(Cc1ccc(Cl)cc1)C1=NC(C)CN1C2=O` (stereo unspecified), 290 to 291 °C; that for `COc1ccc(C2(c3ccc(N(C)C)cc3)OC(=O)c3cc(N(C)C)ccc32)c(OC)c1` (stereo unspecified), 192 to 194 °C.

With `CCOC(=O)COc1ccc(CCNC(=O)C[C@H]2O[C@H](c3cccc(OC)c3OC)c3cc(Cl)ccc3N(CC(C)(C)CO)C2=O)cc1`, the melting point was in the range of 142 to 145 °C. In turn, `O=C1NCCc2c1c1ccccc1n2Cc1ccccc1` showed a melting point of 209 to 212 °C.

In turn, `C=CCN1CCC(O)(c2cc(F)cc(F)c2)C1` (single isomer, unassigned; (-)) yielded a melting point of 102 to 103 °C. In turn, `c1ccc2[nH]c(C34CC5CC(CC(C5)C3)C4)cc2c1` registered a melting point of 48 °C.

For the compound `COc1ccc(C(=O)c2cccc([N+](=O)[O-])c2)cc1OC`, the melting point was 133 to 135 °C. As for `CCc1cc(OCc2ccc(-c3ccccc3-c3nnnn3-c3ccc([N+](=O)[O-])cc3)cc2)c2ccccc2n1`, the figure is 204 to 206 °C. The result for `NC1N=C(c2ccccc2)C=CS1` (stereo unspecified) reads 137 °C; that for `CCCCc1nc(Cl)c(C=O)n1Cc1cccc2c1ncn2-c1ccccc1C#N`, 117 to 135 °C. The result for `BrCc1nc(-c2ccccc2)nc2ccccc12` reads 110 °C. The compound `O=C(NO)OCC1c2ccccc2-c2ccccc21` returned a melting point of 160 °C. The result for `O=C1OCC2=C1C(c1ccccc1Cl)c1c[nH]nc1N2` (stereo unspecified) reads greater than 270 °C. The result for `CC(=O)OC1CSC(Oc2ccc(-c3ccccn3)cc2)C(OC(C)=O)C1OC(C)=O` (stereo unspecified) reads 125 to 130 °C. The result for `Cc1ccc(-c2ccc(C(=O)c3ccc(Cl)cc3Cl)cc2)cc1` reads 184 to 185 °C; that for `CCCCc1ncc(/C=C(\Cc2cccs2)C(=O)O)n1Cc1ccccc1[N+](=O)[O-]`, 205 to 206 °C; that for `CCNc1c(S(=O)C(F)(F)F)c(C)nn1-c1c(Cl)cc(C(F)(F)F)cc1Cl` (stereo unspecified), 76 °C. In turn, `CCOC(=O)c1c2n(c3ccc(Cl)c(Cl)c3c1=O)CCS2` yielded a melting point of 266 to 267 °C.

Compound `Nc1ccc(-n2ccn(CCCC3CCCCC3)c2=O)cc1` gave a melting point of 83 to 85 °C.

For the compound `NC(=O)C1CCCN1c1nc(-c2ccccc2)nc2[nH]c(CN3CCC(O)(c4ccccc4)CC3)cc12` (stereo unspecified), the melting point is 234 to 235 °C. Take `CCc1c(Cl)nc(NC=O)nc1Cl`: the melting point is 116 to 118 °C. `CC(C)c1ccc(OC(Cc2ccc(OCCNC(=O)c3ccc(-c4ccc(N(C)C)cn4)cc3)cc2)C(=O)O)cc1` (stereo unspecified) came in with a melting point of 150 to 151 °C. As for `Cc1sc(N)c(C(=O)c2cccc(C(F)(F)F)c2)c1C`, the figure is 103 to 105 °C; as for `CCOC(=O)c1c(C2CC2)nn(CC)c1Cc1ccc(-c2ccccc2-c2nnn(C(c3ccccc3)(c3ccccc3)c3ccccc3)n2)cc1`, 164 to 168 °C; as for `COC(=O)c1ccc(C(C)(C)CO)cc1`, 44 to 45 °C.

Regarding `COc1ccc2[nH]c(-c3n[nH]c4ccsc34)cc2n1`, the melting point was in the range of 234 to 236 °C.
